Laboratory results as given in patent US20060293378A1, “Method of lowering intraocular pressure” (priority 2005, published 2006).

System: intraocular pressure
Assay: Intraocular pressure in rabbits after injection of an aqueous suspension into the right eye, compared with untreated left eyes
Format: in vivo
Conditions: suspension of 2 mg/mL compound with 7.5 mg/mL sodium carboxymethylcellulose injected into right eyes, dosages 60 μg, 100 μg and 140 μg, versus untreated left eyes, maintained over the 14 days of the test, FIGS. 1 to 3
Experimental: An aqueous suspension was produced containing 2 mg/mL of compound 21 illustrated above together with 7.5 mg/mL of sodium carboxymethylcellulose.

Q: Which “effect on intraocular pressure over time” value does the source give for `CC(C)OCc1ccc2c(c1)c1c3c(c4c(c1n2CCCOC(=O)CN(C)C)Cc1ccccc1-4)C(=O)NC3` [Compound 21] here?
A: significantly increased lowering of intraocular pressure
